Data as given in the NIST ThermoML archive (doi:10.1021/acs.jced.8b00931).
Numbers after ± are expanded uncertainties.

Assays:
[1] = Crystal; DSC
[2] = Molar enthalpy of transition or fusion; conditions: Crystal; DSC

Triple point temperature [1]: 393.39 ± 1.2 K
Molar enthalpy of transition or fusion [2]: 6.46 ± 0.232 kcal/mol
Compound: Nc1cc([N+](=O)[O-])ccc1Cl [2-chloro-5-nitroaniline]
